Assay results: publication PMC10175918 (Communications Biology, 2023)
Values joined by “and” are separate entries in the source; they are usually repeats but may differ in a detail not shown here. Equal values may be shown once. Read-outs that look alike come from different tables or passages of the source. One block for each compound: values may come before it.

Columns and labels:
[1] = biological target: T1, 5-hydroxytryptamine receptor 1F (Homo sapiens, UniProt P30939); experiment: cell-based; parameters: species or system HEK293A; AP-TGFα shedding assay, transfected GPCR plus chimeric Gα mixture, AP release as % of TPA response; settings: HEK293-A
T1 construct: gene HTR1F
T1 sequence (P30939 1-366): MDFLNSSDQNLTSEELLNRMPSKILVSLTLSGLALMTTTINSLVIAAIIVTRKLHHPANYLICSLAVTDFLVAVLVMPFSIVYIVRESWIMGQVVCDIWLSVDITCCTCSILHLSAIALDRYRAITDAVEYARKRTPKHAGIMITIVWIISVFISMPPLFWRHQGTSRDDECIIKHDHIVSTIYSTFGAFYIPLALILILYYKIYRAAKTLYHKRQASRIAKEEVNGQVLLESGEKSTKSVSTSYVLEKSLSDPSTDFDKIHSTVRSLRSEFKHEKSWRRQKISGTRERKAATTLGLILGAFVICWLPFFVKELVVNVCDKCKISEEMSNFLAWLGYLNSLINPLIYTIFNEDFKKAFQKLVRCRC

[2] = biological target: T2, purinergic receptor P2Y, G-protein coupled, 1 (Homo sapiens, UniProt P47900); experiment: cell-based; parameters: species or system HEK293A; AP-TGFα shedding assay, transfected GPCR plus chimeric Gα mixture, AP release as % of TPA response; settings: HEK293-A
T2 construct: gene P2RY1
T2 sequence (P47900 whole entry): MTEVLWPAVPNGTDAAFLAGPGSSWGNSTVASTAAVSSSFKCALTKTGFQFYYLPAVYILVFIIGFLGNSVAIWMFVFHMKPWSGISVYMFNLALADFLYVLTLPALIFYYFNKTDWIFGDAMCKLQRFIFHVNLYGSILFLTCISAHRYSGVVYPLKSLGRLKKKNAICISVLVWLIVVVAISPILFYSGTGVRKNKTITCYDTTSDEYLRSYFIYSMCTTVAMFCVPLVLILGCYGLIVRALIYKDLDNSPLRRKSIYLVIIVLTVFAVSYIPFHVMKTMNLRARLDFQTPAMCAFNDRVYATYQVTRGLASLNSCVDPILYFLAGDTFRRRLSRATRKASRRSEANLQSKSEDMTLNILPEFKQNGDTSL

[3] = biological target: T3, relaxin/insulin-like family peptide receptor 4 (Homo sapiens, UniProt Q8TDU9); experiment: cell-based; parameters: species or system HEK293A; AP-TGFα shedding assay, transfected GPCR plus chimeric Gα mixture, AP release as % of TPA response; settings: HEK293-A
T3 construct: gene RXFP4
T3 sequence (Q8TDU9 whole entry): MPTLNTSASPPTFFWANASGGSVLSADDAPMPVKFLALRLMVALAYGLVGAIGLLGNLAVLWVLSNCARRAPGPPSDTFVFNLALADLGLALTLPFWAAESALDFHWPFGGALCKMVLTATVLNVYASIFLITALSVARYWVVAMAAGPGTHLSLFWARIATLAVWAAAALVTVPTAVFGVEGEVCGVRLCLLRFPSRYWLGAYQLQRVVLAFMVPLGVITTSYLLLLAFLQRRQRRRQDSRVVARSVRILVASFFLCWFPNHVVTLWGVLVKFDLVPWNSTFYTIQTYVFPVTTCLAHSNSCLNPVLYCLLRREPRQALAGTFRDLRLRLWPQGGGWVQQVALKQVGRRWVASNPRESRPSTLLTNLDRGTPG

[4] = biological target: T4, urotensin-II receptor (UTS2R) (Homo sapiens, UniProt Q9UKP6); experiment: TGFα-shedding assay, concentration-response on UTS2R (endogenous G protein), with or without urantide; assay type: cell-based
T4 construct: expressed in transfected cells; host or cells: HEK293A
T4 sequence (Q9UKP6 1-389): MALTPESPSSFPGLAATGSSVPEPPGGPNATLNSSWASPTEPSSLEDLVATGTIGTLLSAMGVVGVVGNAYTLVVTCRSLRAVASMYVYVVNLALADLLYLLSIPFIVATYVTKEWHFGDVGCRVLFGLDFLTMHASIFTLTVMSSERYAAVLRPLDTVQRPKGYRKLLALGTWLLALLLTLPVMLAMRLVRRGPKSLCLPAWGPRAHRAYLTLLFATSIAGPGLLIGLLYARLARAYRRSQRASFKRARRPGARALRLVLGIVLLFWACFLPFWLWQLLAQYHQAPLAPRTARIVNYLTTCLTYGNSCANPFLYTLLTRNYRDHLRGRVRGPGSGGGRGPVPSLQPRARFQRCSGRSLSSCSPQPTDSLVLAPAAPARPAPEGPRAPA

UTS2R T304A = experiment: TGFα-shedding assay on UTS2R mutant T304A; assay type: cell-based, human; settings: cutoff value set to −1, single replicates
UTS2R T304V = experiment: TGFα-shedding assay on UTS2R mutant T304V; assay type: cell-based, human; settings: cutoff value set to −1, single replicates
UTS2R N297A = experiment: TGFα-shedding assay on UTS2R mutant N297A; assay type: cell-based, human; settings: cutoff value set to −1, single replicates
UTS2R M134A = experiment: TGFα-shedding assay on UTS2R mutant M134A; assay type: cell-based, human; settings: cutoff value set to −1, single replicates
UTS2R D130N = biological target: T5, UTS2R D130N (Homo sapiens, UniProt Q9UKP6, D130N); experiment: TGFα-shedding assay on UTS2R mutant D130N; assay type: cell-based
T5 construct: expressed in transfected cells; host or cells: HEK293A
T5 sequence (Q9UKP6 whole entry D130N): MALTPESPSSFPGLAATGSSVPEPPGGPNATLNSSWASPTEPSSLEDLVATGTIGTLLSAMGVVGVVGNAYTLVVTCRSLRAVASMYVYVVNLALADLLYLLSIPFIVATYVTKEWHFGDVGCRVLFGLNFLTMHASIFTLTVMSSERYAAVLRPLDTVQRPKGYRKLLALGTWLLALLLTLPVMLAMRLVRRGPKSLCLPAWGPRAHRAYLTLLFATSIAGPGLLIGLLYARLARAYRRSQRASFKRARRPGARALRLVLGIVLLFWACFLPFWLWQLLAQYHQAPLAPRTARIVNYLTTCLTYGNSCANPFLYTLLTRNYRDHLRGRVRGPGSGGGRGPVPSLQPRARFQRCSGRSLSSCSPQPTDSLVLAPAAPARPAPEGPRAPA

UTS2R G68C = experiment: TGFα-shedding assay on UTS2R SNV mutant G68C; assay type: cell-based, human; settings: cutoff value set to −1, single replicates
UTS2R V159M = experiment: TGFα-shedding assay on UTS2R SNV mutant V159M; assay type: cell-based, human; settings: cutoff value set to −1, single replicates
UTS2R A249G = experiment: TGFα-shedding assay on UTS2R SNV mutant A249G; assay type: cell-based, human; settings: cutoff value set to −1, single replicates
[5] = biological target: T6, UTS2R (β-arrestin 1 recruitment) (Homo sapiens, UniProt Q9UKP6); experiment: NanoBiT β-arrestin 1 recruitment assay for UTS2R; assay type: cell-based; settings: β-arrestin 1, Fig. 1c
T6 construct: expressed in transfected cells; host or cells: HEK293A

FLAG-UTS2R = biological target: T7, FLAG-UTS2R (Homo sapiens, UniProt Q9UKP6); experiment: Competitive binding assay: biotin-UT2 pulldown of FLAG-UTS2R from HEK293 membrane fraction; settings: membrane fraction of HEK293 cells expressing FLAG-UTS2R, streptavidin beads, western blot
T7 construct: expressed in transfected cells; host or cells: HEK293
Procedure: HEK293 cells were transfected with the plasmid encoding FLAG-UTS2R and were serum-starved for 6 h before experimentation. Cells were washed twice with ice-cold PBS. Hypotonic solution (50 mM HEPES, pH 7.5 with protease inhibitor cocktails) was added to the cell plate, and the cells were harvested by scraping. Cells were homogenized using a dounce homogenizer (IKA EUROSTAR 20 digital) at 2,000 rpm for 20 strokes at 4 °C, and further homogenized using a tissue rupture (Qiagen) for 5 s at 4 °C. The homogenate was centrifuged at 800 x g for 10 min at 4 °C to remove unbroken cells and the nucleus. The supernatant was further centrifuged at 30,000×g for 30 min at 4° (CP80NX, himac). The resulting pellet was used as crude membrane fraction and was suspended in hyperosmotic solution (50 mM HEPES, pH 7.5, 250 mM NaCl, 2 mM EDTA with protease inhibitor).
The biotin-UT2-bound UTS2R complex was solubilized using a hyperosmotic buffer containing detergent (N-Dodecyl-β-D-maltopyranoside; DDM, 5× CMC) and pulled down using streptavidin magnetic beads. The suitable beads for the experiment were selected from 5 types (Supplementary Fig. 1d, Dynabeads Streptavidin Trial Kit, Thermo Fisher, and Streptavidin magnetic beads, NEB) and denatured with SDS buffer. […]

[6] = test system: ERK1/2 phosphorylation in HEK293 cells overexpressing UTS2R; experiment: Western blot of ERK1/2 phosphorylation in HEK293 cells overexpressing UTS2R; assay type: cell-based, human; settings: application for up to 72 h
hiPS-CMs = experiment: Perforated patch-clamp, spontaneous action potentials (APD90) of hiPS-CMs; assay type: cell-based, human; settings: 10 µM remdesivir, 72 h
[7] = test system: mitochondrial respiratory complex proteins; experiment: Western blot of mitochondrial respiratory complex proteins in UTS2R-transfected HEK293A cells; assay type: cell-based, human; settings: 10 μM remdesivir, 48 h
[8] = test system: neonatal rat cardiomyocytes (NRCMs); settings: for Contraction [a.u.]: 48 h
[9] = read-out: % GPCR activation of 10μM GS441524 compared to TPA
[10] = read-out: % GPCR activation of 100μM Favipiravir compared to TPA
[11] = read-out: % GPCR activation of 10µM Molnupiravir compared to TPA
[12] = read-out: % GPCR activation of 10µM Remdesivir compared to TPA
[13] = read-out: % GPCR activation of 10μM Sofosbuvir compared to TPA

SMILES: NC(=O)c1nc(F)cnc1O [favipiravir, 6-fluoro-3-hydroxy-2-pyrazinecarboxamide]
activity at 100 µM [1, 10]: 1.63%
activity at 100 µM [2, 10]: 0.43%
activity at 100 µM [3, 10]: 1.69%

SMILES: CCC(CC)COC(=O)[C@H](C)N[P@](=O)(OC[C@H]1O[C@@](C#N)(c2ccc3c(N)ncnn23)[C@H](O)[C@@H]1O)Oc1ccccc1 [remdesivir]
Emax [4]: 47 ± 1.4%
EC50 ([4]; WT EC50 (Remdesivir), wild-type UTS2R control run alongside the mutant): 17.4 µM and 15.9 µM and 10.7 µM and 14 µM and 10.2 µM and 10.8 µM and 12.4 µM (2×) and 18 µM and 11.6 µM and 18.5 µM
EC50 ([4]; pEC50 (TGFα-shedding response for UTS2R), WT UTS2R, without chimeric Gα protein, HEK293A cells): 12.9 µM
activation at 10 µM ([4]; read-out: UTS2R activation (%AP-TGFα release), compound concentration Log10 (M) -5, without urantide): 15%
activation at 3.3 µM ([4]; read-out: UTS2R activation (%AP-TGFα release), compound concentration Log10 (M) -5.48149, without urantide): 7.9%
⊿pEC50 compared to WT UTS2R (UTS2R T304A): -1
⊿pEC50 compared to WT UTS2R (UTS2R T304V): -1
⊿pEC50 compared to WT UTS2R (UTS2R N297A): -1 and -0.7407
⊿pEC50 compared to WT UTS2R (UTS2R M134A): -1
receptor activation of D130N mutant (UTS2R D130N; D130N mutation vs WT, TGFα-shedding): significantly upregulated
⊿pEC50 compared to WT UTS2R (UTS2R D130N; D130N, cutoff value set to −1, single replicates): 0.5051 and 0.5402 and 0.5471 and 0.5928 and 0.4845
⊿pEC50 compared to WT UTS2R (UTS2R G68C): > 0.3 and 0.5256 and 0.7054 and 0.6735 and 0.5172
⊿pEC50 compared to WT UTS2R (UTS2R V159M): > 0.3 and 0.3136 and 0.3109 and 0.3308 and 0.4558
⊿pEC50 compared to WT UTS2R (UTS2R A249G): > 0.3 and 0.2782 and 0.2736 and 0.3671 and 0.2913
β-arrestin recruitment response [5]: failed to induce a β-arrestin recruitment response
biotin–UT2-mediated UTS2R pulldown (FLAG-UTS2R): significantly impaired
phosphorylation of ERK1/2 [6]: long-lasting and dose-dependent phosphorylation of ERK1/2
APD90 (action potential duration at 90% repolarization) (hiPS-CMs): significantly prolonged
steady-state levels of mitochondrial respiratory complex proteins [7]: did not affect
Contraction [a.u.] ([8]; Fig.4a, 1 µM remdesivir, pacing, replicates): 0.1429 a.u. and 0.1533 a.u. and 0.1024 a.u.
Contraction [a.u.] ([8]; Fig.4a, urantide (100 nM) + 1 µM remdesivir): 0.2641 a.u. and 0.2651 a.u. and 0.2715 a.u.
Contraction [a.u.] ([8]; Fig.4b, 1 µM remdesivir, pacing, replicates): 0.1019 a.u. and 0.1158 a.u. and 0.1194 a.u.
Contraction [a.u.] ([8]; Fig.4b, PTX (150 ng/mL) + 1 µM remdesivir): 0.3302 a.u. and 0.3344 a.u. and 0.3245 a.u.
Contraction [a.u.] ([8]; Fig.4b, YM-254890 (1 μM) + 1 µM remdesivir): 0.108 a.u. and 0.1376 a.u. and 0.1361 a.u.
contractility of NRCMs ([8]; chronic remdesivir treatment, constant pacing): reduced contractility
activity at 10 µM [1, 12]: -2.15%
activity at 10 µM [2, 12]: 11%
activity at 10 µM [3, 12]: 0.997%

SMILES: CC(C)OC(=O)[C@H](C)N[P@](=O)(OC[C@H]1O[C@@H](n2ccc(=O)[nH]c2=O)[C@](C)(F)[C@@H]1O)Oc1ccccc1 [sofosbuvir]
UTS2R activation ([4]; TGFα-shedding, screening 10 μM and response curves (Fig. 1a, Supplementary Fig. 1a)): did not activate UTS2R
activity at 10 µM [1, 13]: -0.816%
activity at 10 µM [2, 13]: -4.63%
activity at 10 µM [3, 13]: -1.57%

Second part, the compound after the results:

activity at 10 µM [1, 9]: 0.356%
activity at 10 µM [2, 9]: -0.459%
activity at 10 µM [3, 9]: -0.338%
SMILES: N#C[C@@]1(c2ccc3c(N)ncnn23)O[C@H](CO)[C@@H](O)[C@H]1O [GS441524]

activity at 10 µM [1, 11]: 0.719%
activity at 10 µM [2, 11]: -11.8%
activity at 10 µM [3, 11]: -0.46%
SMILES: CC(C)C(=O)OC[C@H]1O[C@@H](n2ccc(NO)nc2=O)[C@H](O)[C@@H]1O [molnupiravir]
